# Measurements published in the supplement of paper PMC10307832.
# Tests used:
# Test in all cases: relative viability (nuclei count vs DMSO), 5 days (fraction); higher = more cells survive
# DM3189 + Crizotinib = compound: C1CN(CCN1)C2=CC=C(C=C2)C3=CN4C(=C(C=N4)C5=CC=NC6=CC=CC=C56)N=C3 [DM3189] + C[C@@H](Oc1cc(-c2cnn(C3CCNCC3)c2)cnc1N)c1c(Cl)ccc(F)c1Cl [Crizotinib] (partner 1 µM)
# Procedure, shortened: (§1)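 Relative viability divides the nuclei count in treated wells by that in vehicle wells. Lung cancer cell lines were seeded in 1536-well plates, dosed by pin tool the next day, and fixed and stained after 5 days in one step with final 0.05% Triton X-100, 1% formaldehyde and 1 ug/ml Hoechst. Dosing was a single drug or a fixed anchor-drug dose plus five library-drug doses (not always all listed) in √10 steps, and values are medians of duplicate plates imaged at 4×.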
# DM3189 + Foretinib = compound: C1CN(CCN1)C2=CC=C(C=C2)C3=CN4C(=C(C=N4)C5=CC=NC6=CC=CC=C56)N=C3 [DM3189] + COc1cc2c(Oc3ccc(NC(=O)C4(C(=O)Nc5ccc(F)cc5)CC4)cc3F)ccnc2cc1OCCCN1CCOCC1 [Foretinib] (partner 0.25 µM)
# Procedure, shortened: as §1
# DM3189 + Linsitinib = compound: C1CN(CCN1)C2=CC=C(C=C2)C3=CN4C(=C(C=N4)C5=CC=NC6=CC=CC=C56)N=C3 [DM3189] + C[C@]1(O)C[C@@H](c2nc(-c3ccc4ccc(-c5ccccc5)nc4c3)c3c(N)nccn32)C1 [Linsitinib] (partner 1 µM)
# Procedure, shortened: as §1
# DM3189 + Phenformin = compound: C1CN(CCN1)C2=CC=C(C=C2)C3=CN4C(=C(C=N4)C5=CC=NC6=CC=CC=C56)N=C3 [DM3189] + N=C(N)NC(=N)NCCc1ccccc1 [Phenformin] (partner 250 µM)
# Procedure, shortened: as §1
# DM3189 = compound: C1CN(CCN1)C2=CC=C(C=C2)C3=CN4C(=C(C=N4)C5=CC=NC6=CC=CC=C56)N=C3 [DM3189]
# Procedure, shortened: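 On vehicle-anchored 1536-well plates, lung cancer cell lines held overnight at 37 °C were pinned with five library-drug doses (not always all listed) spaced by √10. With no medium change over 5 days, they were then fixed, permeabilised and Hoechst-stained in one step and imaged at 4×. MetaXpress counted nuclei, and viability is the median across plates of treated-well over vehicle-well nuclei. Acceptance needed control CV below 25% and at least one doubling.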
Cell Line,relative viability (DM3189 + Crizotinib; first compound 0.08 µM),relative viability (DM3189 + Crizotinib; first compound 0.253 µM),relative viability (DM3189 + Crizotinib; first compound 0.8 µM),relative viability (DM3189 + Crizotinib; first compound 2.53 µM),relative viability (DM3189 + Foretinib; first compound 0.08 µM),relative viability (DM3189 + Foretinib; first compound 0.253 µM),relative viability (DM3189 + Foretinib; first compound 0.8 µM),relative viability (DM3189 + Foretinib; first compound 2.53 µM),relative viability (DM3189 + Linsitinib; first compound 0.08 µM),relative viability (DM3189 + Linsitinib; first compound 0.253 µM),relative viability (DM3189 + Linsitinib; first compound 0.8 µM),relative viability (DM3189 + Linsitinib; first compound 2.53 µM),relative viability (DM3189 + Phenformin; first compound 0.08 µM),relative viability (DM3189 + Phenformin; first compound 0.253 µM),relative viability (DM3189 + Phenformin; first compound 0.8 µM),relative viability (DM3189 + Phenformin; first compound 2.53 µM),relative viability (DM3189; 0.08 µM),relative viability (DM3189; 0.253 µM),relative viability (DM3189; 0.8 µM),relative viability (DM3189; 2.53 µM)
NCI-H650,0.754,0.575,0.594,0.661,1.04,0.964,0.912,1.02,1.12,0.84,0.659,0.763,0.518,0.497,0.47,0.489,1.09,0.848,0.877,0.965
NCI-H2023,0.68,0.729,0.631,0.502,0.938,0.867,0.857,0.552,0.683,0.694,0.496,0.667,0.368,0.363,0.428,0.347,1,0.955,0.978,0.854
EPLC-272H,0.97,0.96,0.941,0.821,0.677,0.67,0.783,0.59,1.24,1.3,1.16,1.29,0.284,0.293,0.25,0.276,0.975,0.823,0.917,0.896
NCI-H596,1.15,1.01,0.93,0.943,1.12,0.955,0.695,1.06,1.15,1.13,1.05,1.14,0.724,0.802,0.78,0.709,1.13,0.85,1.05,0.996
NCI-H3122,0.237,0.204,0.261,0.259,0.98,0.909,0.735,0.805,0.939,0.907,0.876,0.933,0.405,0.334,0.355,0.333,0.992,0.901,0.905,0.975
NCI-H2087,0.894,0.695,0.788,0.79,1.28,1.18,1.07,0.969,1.06,0.909,1.11,0.969,0.457,0.495,0.437,0.418,1.26,1.02,1.08,0.979
NCI-H441,0.951,0.751,0.737,0.924,1.01,0.726,1.24,0.702,0.587,0.511,0.518,0.548,0.825,0.959,0.794,0.738,1.26,0.955,1.02,0.981
NCI-H1944,1.25,1,–,1.22,0.93,0.81,–,0.88,1.26,1.19,–,1.21,0.237,0.192,–,0.192,1.19,0.991,–,1.02
LC-2-ad,0.419,0.458,0.382,0.378,1.08,0.926,0.931,0.992,0.858,0.847,0.819,0.855,0.689,0.531,0.533,0.584,1.07,1,0.874,1.05
NCI-H358,0.516,0.56,0.504,0.509,0.733,0.607,0.714,0.61,0.766,0.646,0.71,0.584,0.453,0.311,0.323,0.269,1.01,0.869,0.843,0.913
NCI-H2170,1.31,1.27,1.24,1.09,0.985,1.01,0.883,1.16,–,–,–,–,0.435,0.367,0.361,0.397,1.06,1.01,0.981,0.946
A-427,0.904,0.854,0.811,0.95,1.09,1.23,1.04,1.22,1.1,1.03,1.11,1.33,0.344,0.297,0.284,0.227,1.19,1,0.93,0.947
NCI-H1666,1.07,1.01,0.965,0.8,1.02,0.97,1.02,0.93,0.861,0.808,0.842,1.04,0.629,0.545,0.549,0.592,1.04,1.02,1.1,1.12
LOU-NH91,0.754,0.709,0.718,0.727,1.08,0.942,0.891,0.96,0.901,0.956,0.802,0.923,0.886,0.689,0.706,0.747,1.16,0.921,0.832,0.924
ABC-1,1.07,0.991,0.991,0.668,1.14,1.18,1.08,0.906,0.806,0.894,0.752,0.783,0.256,0.233,0.216,0.176,1.12,0.847,0.752,0.829
